Assay results: patent US10227345B2, “Compounds and methods for inhibiting fascin” (Cornell University, priority 2014, dated 2019)

Target: T1, human fascin 1 (Homo sapiens, UniProt Q16658)
T1 construct: GST (N, cleaved yes); made in house; host or cells: Escherichia coli BL21/DE3 (pGEX4T-fascin 1 plasmid)
Test: Fascin inhibition (actin bundling) assay, image-based
Format: biochemical
Conditions: in the presence of 50 μm of the compound relative to bundle activity when the compound was not present; read-out: Inhibition (percentage reduction of bundle activity)
Experimental: Recombinant human fascin 1 was expressed as a GST fusion protein in BL21 Escherichia coli. One liter of 2YT medium with ampicillin was inoculated overnight with 3 mL of BL21/DE3 culture transformed with pGEX4T-fascin 1 plasmid and grown at 37° C. until attenuance at 600 nm (D600) reached about 0.8. The culture was then transferred to 18° C. and induced by the addition of 0.1 mM isopropyl β-d-thiogalactoside (IPTG) for 12 h. Bacteria were harvested by centrifugation at 5,000 r.p.m. for 10 min. The pellets were suspended in 30 mL of PBS supplemented with 0.2 mM PMSF, 1 mM DTT, 1% (v/v) Triton X-100 and 1 mM EDTA. After sonication, the suspension was centrifuged at 15,000 r.p.m. for 30 min to remove the cell debris. The supernatant was then incubated for 2 h with 4 mL of glutathione beads (Sigma) at 4° C. After extensive washing with PBS, the beads were resuspended in 10 mL of thrombin cleavage buffer (20 mM Tris-HCl pH 8.0, 150 mM NaCl, 2 mM CaCl2, 1 mM DTT). Fascin was released from the beads by incubation overnight with 40-100 U of thrombin at 4° C. After centrifugation, 0.2 mM PMSF was added to the supernatant to inactivate the remnant thrombin activity. The fascin protein was further concentrated with a Centricon® (Boca Raton, Fla.) filter to about 50 mg/mL.
Representative compounds described herein were tested for fascin inhibition activity. Purified fascin protein (15 μL of 0.5 μM) in buffer (100 mM KCl, 20 mM Tris/HCl, pH 7.5, 2 mM MgCl2) was added into each well of a clear 384-well flat-bottom plate (Corning) using Thermo Multidrop Combi (Fisher). Compound solutions (5 mM stock, 180 nL) were pin transferred from stock 384-well plates into the 384-well assay plates and incubated for 30 min. Then 15 μL of 0.5 μM polymerized actin (in 100 mM KCl, 20 mM Tris/HCl, pH 7.5, 2 mM MgCl2, 1 mM DTT, 1 mM ATP) (Cytoskeleton Inc.) was added, resulting in 30 μM final concentration for chemical compounds. […] Mixed solution (25 μL) was then transferred to one well in a black 384-well plate coated with poly-D-lysine, and stained actin bundles or F-actin would stick onto the poly-D-lysine plates. After the plates were thoroughly washed with 1×PBS for 3 times, the plate was imaged using an ImageXpress Micro High Content Screening System (Molecular devices). The images were processed and analyzed using MetaMorph software. The raw image data for each well was background-corrected by subtraction of the median intensities across all wells on the plate. The background-corrected data was used to compute the bundle length for each well. The negative control wells were employed for quality control: multiple DMSO-only control wells (16 wells/plate) were present on each assay plate.

| SMILES | inhibition at 50 µM [%] |
| --- | --- |
| CNc1nn(Cc2ccc(C(F)(F)F)cc2)c2cncc(Cl)c12 [Compound 149] | 10 |
| N#Cc1ccc2c(c1)c(NC(=O)c1ccoc1)nn2Cc1ccc(C(F)(F)F)nc1 [Compound 98, N-(5-cyano-1-((6-(trifluoromethyl)pyridin-3-yl)methyl)-1H-indazol-3-yl)furan-3-carboxamide] | < 10 |
| Cc1ncsc1C(=O)Nc1nn(Cc2ccc(C(F)(F)F)cc2)c2ccc(C(F)(F)F)cc12 [Compound 126, 4-methyl-N-(5-(trifluoromethyl)-1-(4-(trifluoromethyl)-bemzyl)-1H-indazol-3-yl)thiazole-5-carboxamide] | < 10 |
| O=C(Nc1nn(Cc2ccc(C(F)(F)F)cc2)c2ccccc12)c1ccsn1 [Compound 39, N-(1-(4-(trifluoromethyl)benzyl)-1H-indazol-3-yl)isothiazole-3-carboxamide] | 50 |
| Cc1nocc1C(=O)Nc1nn(Cc2ccc(C(F)(F)F)cc2)c2ccc(C(F)(F)F)cc12 [Compound 124, 3-methyl-N-(5-(trifluoromethyl)-1-(4-(trifluoromethyl)benzyl)-1H-indazol-3-yl)isoxazole-4-carboxamide] | < 10 |
| Cc1occc1C(=O)Nc1nn(Cc2ccc(C(F)(F)F)cc2)c2cccc(Cl)c12 [Compound 119, N-(4-chloro-1-(4-(trifluoromethyl)benzyl)-1H-indazol-3-yl)-2-methylfuran-3-carboxamide] | < 10 |
| Cc1occc1C(=O)Nc1nn(Cc2ccc(C(F)(F)F)cc2)c2ccc(C(F)(F)F)cc12 [Compound 125, 2-methyl-N-(5-(trifluoromethyl)-1-(4-(trifluoromethyl)benzyl)-1H-indazol-3-yl)furan-3-carboxamide] | < 10 |
| Cc1cnoc1C(=O)Nc1nn(Cc2ccc(C(F)(F)F)cc2)c2ccccc12 [Compound 28, 4-methyl-N-(1-(4-(trifluoromethyl)benzyl)-1H-indazol-3-yl)isoxazole-5-carboxamide] | 80 |
| O=C(Nc1nn(Cc2ccc(C(F)(F)F)cc2)c2ccccc12)c1cc2ccccc2o1 [Compound 2, N-(1-(4-(trifluoromethyl)benzyl)-1H-indazol-3-yl)benzofuran-2-carboxamide] | < 10 |
| O=C(Nc1nn(Cc2ccc(C(F)(F)F)cc2)c2ccccc12)c1cc(F)ccc1F [Compound 21, 2,5-difluoro-N-(1-(4-trifluoromethyl)benzyl)-1H-(indazol-3-yl)benzamide] | < 10 |
| O=C(Nc1nn(Cc2ccc(C(F)(F)F)cc2)c2ccccc12)c1cccnc1 [Compound 54, N-(1-(4-(trifluoromethyl)benzyl)-1H-indazol-3-yl)nicotinamide] | < 10 |
| Cc1occc1C(=O)Nc1nn(Cc2ccc(Cl)cc2)c2ccccc12 [Compound 67, N-(1-(4-chlorobenzyl)-1H-indazol-3-yl)-2-methylfuran-3-carboxamide] | 50 |
| Cc1ncsc1C(=O)Nc1nn(Cc2ccc(F)cc2)c2ccccc12 [Compound 75, N-(1-(4-fluorobenzyl)-1H-indazol-3-yl)-4-methylthiazole-5-carboxamide] | < 10 |
| Cc1scnc1C(=O)Nc1nn(Cc2ccc(C(F)(F)F)cc2)c2ccccc12 [Compound 32, 5-methyl-N-(1-(4-(trifluoromethyl)benzyl)-1H-indazol-3-yl)thiazole-4-carboxamide] | < 10 |
| Cc1ccc(Cn2nc(NC(=O)c3ccoc3C)c3ccccc32)cc1 [Compound 81, 2-methyl-N-(1-(4-methylbenzyl)-1H-indazol-3-yl)furan-3-carboxamide] | < 10 |
| Cc1ncsc1C(=O)Nc1nn(Cc2ccc(Cl)cc2)c2ccccc12 [Compound 68, N-(1-(4-chlorobenzyl)-1H-indazol-3-yl)-4-methylthiazole-5-carboxamide] | 50 |

| SMILES | inhibition at 50 µM [%] |
| --- | --- |
| Nc1nn(Cc2ccc(C(F)(F)F)cc2)c2ccccc12 [Compound 59, 1-(4-(trifluoromethyl)benzyl)-1H-indazol-3-amine] | < 10 |
| Cc1ccc2c(N)nn(Cc3ccc(C(F)(F)F)cc3)c2n1 [Compound 131, 6-methyl-1-(4-(trifluoromethyl)benzyl)-1H-pyrazolo[3,4-b]pyridin-3-amine] | < 10 |
| Cc1ncsc1C(=O)Nc1nn(Cc2ccc(C(F)(F)F)cc2)c2cncc(Cl)c12 [Compound 138, N-(4-chloro-1-(4-(trifluoromethyl)benzyl)-1H-pyrazolo[3,4-c]pyridin-3-yl)-4-methylthiazole-5-carboxamide] | 90 |
| Cc1nocc1C(=O)Nc1nn(Cc2ccc(F)cc2)c2ccccc12 [Compound 72, N-(1-(4-fluorobenzyl)-1H-indazol-3-yl)-3-methylisoxazole-4-carboxamide] | < 10 |
| Cc1ccc2c(NC(=O)c3ccoc3)nn(Cc3ccc(C(F)(F)F)cc3)c2n1 [Compound 132, N-(6-methyl-1-(4-(trifluoromethyl)benzyl)-1H-pyrazolo[3,4-b]pyridin-3-yl)furan-3-carboxamide] | < 10 |
| O=C(Nc1nn(Cc2ccc(C(F)(F)F)cc2)c2ccccc12)c1cscn1 [Compound 30, N-(1-(4-(trifluoromethyl)benzyl)-1H-indazol-3-yl)thiazole-4-carboxamide] | < 10 |
| N#Cc1ccc(Cn2nc(NC(=O)c3cccnn3)c3ccccc32)cc1 [Compound 90, N-(1-(4-cyanobenzyl)-1H-indazol-3-yl)pyridazine-3-carboxamide] | < 10 |
| O=C(Nc1nn(Cc2ccc(C(F)(F)F)cc2)c2ccccc12)c1ccccc1OC(F)(F)F [Compound 52, 2-(trifluoromethoxy)-N-(1-(4-(trifluoromethyl)benzyl)-1H-indazol-3-yl)benzamide] | < 10 |
| N#Cc1ccc(Cn2nc(NC(=O)c3ccoc3)c3ccccc32)cc1 [Compound 85, N-(1-(4-cyanobenzyl)-1H-indazol-3-yl)furan-3-carboxamide] | < 10 |
| Cc1occc1C(=O)Nc1nn(Cc2ccc(C#N)cc2)c2ccccc12 [Compound 88, N-(1-(4-cyanobenzyl)-1H-indazol-3-yl)-2-methylfuran-3-carboxamide] | < 10 |
| Nc1nn(Cc2ccc(CO)cc2)c2ccccc12 [Compound 103, (4-((3-amino-1H-indazol-1-yl)methyl)phenyl)methanol] | < 10 |
| Cc1nocc1C(=O)Nc1nn(Cc2ccc(C(F)(F)F)cc2)c2cc(C(F)(F)F)ccc12 [Compound 108] | < 10 |
| Nc1nn(Cc2ccc(F)cc2)c2ccccc12 [Compound 70, 1-(4-fluorobenzyl)-1H-indazol-3-amine] | < 10 |
| Cc1nocc1C(=O)Nc1nn(Cc2ccc(C(F)(F)F)nc2)c2ccc(C#N)cc12 [Compound 99, N-(5-cyano-1-((6-(trifluoromethyl)pyridin-3-yl)methyl)-1H-indazol-3-yl)-3-methylisoxazole-4-carboxamide] | < 10 |
| O=C(Nc1nn(Cc2ccc(C(F)(F)F)cc2)c2ccccc12)c1ccccc1C(F)(F)F [Compound 50, 2-(trifluoromethyl)-N-(1-(4-(trifluoromethyl)benzyl)-1H-indazol-3-yl)benzamide] | < 10 |
| O=C(Nc1nn(Cc2ccc(C(F)(F)F)cc2)c2cccc(Cl)c12)c1ccoc1 [Compound 117, N-(4-chloro-1-(4-(trifluoromethyl)benzyl)-1H-indazol-3-yl)furan-3-carboxamide] | < 10 |
